Test results as given in PubChem BioAssay (NCI).
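Dose response: 5 concentrations. Exposure: 48 h. Format: 96-well plates. Endpoint: linear interpolation; highest concentration if not reached. GI50 = concentration required for 50% inhibition of growth. The concentration for full growth arrest is given as TGI.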

Key:
Experiment in all cases: inhibition of tumour cell growth, NCI panel, 48 h
OVCAR-4 ovarian = test system: OVCAR-4 ovarian
SNB-19 CNS = test system: SNB-19 CNS
OVCAR-8 ovarian = test system: OVCAR-8 ovarian
786-0 renal = test system: 786-0 renal
HL-60(TB) leukemia = test system: HL-60(TB) leukemia
OVCAR-3 ovarian = test system: OVCAR-3 ovarian
NCI-H23 lung = test system: NCI-H23 lung
HOP-92 NSCLC = test system: HOP-92 NSCLC
NCI/ADR-RES ovarian = test system: NCI/ADR-RES ovarian
NCI-H522 lung = test system: NCI-H522 lung
OVCAR-5 ovarian = test system: OVCAR-5 ovarian
A549 NSCLC = test system: A549 NSCLC
T-47D breast = test system: T-47D breast
SF-539 CNS = test system: SF-539 CNS
HOP-62 NSCLC = test system: HOP-62 NSCLC
MDA-MB-231 breast = test system: MDA-MB-231 breast
UACC-257 melanoma = test system: UACC-257 melanoma
HCT-15 colon = test system: HCT-15 colon
PC-3 prostate = test system: PC-3 prostate
BT-549 breast = test system: BT-549 breast
SK-MEL-5 melanoma = test system: SK-MEL-5 melanoma
K-562 leukemia = test system: K-562 leukemia
M14 melanoma = test system: M14 melanoma
IGROV1 ovarian = test system: IGROV1 ovarian
LOX IMVI melanoma = test system: LOX IMVI melanoma
SW-620 colon = test system: SW-620 colon
SN12C renal = test system: SN12C renal
NCI-H460 lung = test system: NCI-H460 lung
CAKI-1 renal = test system: CAKI-1 renal
HS 578T breast = test system: HS 578T breast
NCI-H226 lung = test system: NCI-H226 lung
MALME-3M melanoma = test system: MALME-3M melanoma
SF-295 CNS = test system: SF-295 CNS
MOLT-4 leukemia = test system: MOLT-4 leukemia
RXF 393 renal = test system: RXF 393 renal
EKVX NSCLC = test system: EKVX NSCLC
KM12 colon = test system: KM12 colon
UO-31 renal = test system: UO-31 renal
SNB-75 CNS = test system: SNB-75 CNS
RPMI-8226 leukemia = test system: RPMI-8226 leukemia
MCF7 breast = test system: MCF7 breast
SK-MEL-2 melanoma = test system: SK-MEL-2 melanoma
ACHN renal = test system: ACHN renal
DU-145 prostate = test system: DU-145 prostate
UACC-62 melanoma = test system: UACC-62 melanoma
HT29 colon = test system: HT29 colon
U251 CNS = test system: U251 CNS
SK-MEL-28 melanoma = test system: SK-MEL-28 melanoma
COLO 205 colon = test system: COLO 205 colon
MDA-MB-435 = test system: MDA-MB-435
SR leukemia = test system: SR leukemia
SF-268 CNS = test system: SF-268 CNS
SK-OV-3 ovarian = test system: SK-OV-3 ovarian
CCRF-CEM leukemia = test system: CCRF-CEM leukemia
HCT-116 colon = test system: HCT-116 colon
HCC-2998 colon = test system: HCC-2998 colon

## Oc1cc2ccccc2cc1-c1n[nH]c(=S)n1CCc1ccccc1
OVCAR-4 ovarian
  GI50: 42.2 µM
  TGI: > 100 µM
SNB-19 CNS
  GI50: 36.7 µM
  TGI: > 100 µM
OVCAR-8 ovarian
  GI50: 35.5 µM
  TGI: > 100 µM
786-0 renal
  GI50: 18.3 µM
  TGI: 36.2 µM
HL-60(TB) leukemia
  GI50: 73.2 µM
  TGI: > 100 µM
OVCAR-3 ovarian
  GI50: 34.4 µM
  TGI: 94 µM
NCI-H23 lung
  GI50: 16.5 µM
  TGI: 36.1 µM
HOP-92 NSCLC
  GI50: 55.7 µM
  TGI: > 100 µM
NCI/ADR-RES ovarian
  GI50: 21.1 µM
  TGI: 43.5 µM
NCI-H522 lung
  GI50: 15.3 µM
  TGI: 31.3 µM
OVCAR-5 ovarian
  GI50: 24.1 µM
  TGI: 53.4 µM
A549 NSCLC
  GI50: 37.3 µM
  TGI: > 100 µM
T-47D breast
  GI50: 43.6 µM
  TGI: > 100 µM
SF-539 CNS
  GI50: 21.3 µM
  TGI: 44.5 µM
HOP-62 NSCLC
  GI50: 25.7 µM
  TGI: 43.6 µM
MDA-MB-231 breast
  GI50: 22.1 µM
  TGI: 57.8 µM
UACC-257 melanoma
  GI50: 30 µM
  TGI: 65.6 µM
HCT-15 colon
  GI50: 22.5 µM
  TGI: 51.9 µM
PC-3 prostate
  GI50: 20.6 µM
  TGI: 43.5 µM
BT-549 breast
  GI50: 18.6 µM
  TGI: 45.9 µM
SK-MEL-5 melanoma
  GI50: 19.4 µM
  TGI: 43.6 µM
K-562 leukemia
  GI50: 68.2 µM
  TGI: > 100 µM
M14 melanoma
  GI50: 15.8 µM
  TGI: 32.2 µM
IGROV1 ovarian
  GI50: 14.8 µM
  TGI: 30.3 µM
LOX IMVI melanoma
  GI50: 22.1 µM
  TGI: 38.7 µM
SW-620 colon
  GI50: 36.2 µM
  TGI: > 100 µM
SN12C renal
  GI50: 16.7 µM
  TGI: 32.6 µM
NCI-H460 lung
  GI50: 20.2 µM
  TGI: 35.3 µM
CAKI-1 renal
  GI50: 30.9 µM
  TGI: 73.9 µM
HS 578T breast
  GI50: 24.2 µM
  TGI: 57 µM
NCI-H226 lung
  GI50: 19.9 µM
  TGI: 55.3 µM
MALME-3M melanoma
  GI50: 26.7 µM
  TGI: 58.9 µM
SF-295 CNS
  GI50: 42.3 µM
  TGI: > 100 µM
MOLT-4 leukemia
  GI50: > 100 µM
  TGI: > 100 µM
RXF 393 renal
  GI50: 30.7 µM
  TGI: 59 µM
EKVX NSCLC
  GI50: 33.7 µM
  TGI: 79.3 µM
KM12 colon
  GI50: 43.2 µM
  TGI: > 100 µM
UO-31 renal
  GI50: 20.3 µM
  TGI: 52.7 µM
SNB-75 CNS
  GI50: 73.2 µM
  TGI: > 100 µM
RPMI-8226 leukemia
  GI50: 18.1 µM
  TGI: 62.5 µM
MCF7 breast
  GI50: 22.5 µM
  TGI: 44.5 µM
SK-MEL-2 melanoma
  GI50: 16.3 µM
  TGI: 32.8 µM
ACHN renal
  GI50: 22.4 µM
  TGI: 69.8 µM
DU-145 prostate
  GI50: 37.1 µM
  TGI: > 100 µM
UACC-62 melanoma
  GI50: 21.2 µM
  TGI: 39.6 µM
HT29 colon
  GI50: 35.7 µM
  TGI: 91.8 µM
U251 CNS
  GI50: 20.3 µM
  TGI: 39 µM
SK-MEL-28 melanoma
  GI50: 44.8 µM
  TGI: > 100 µM
COLO 205 colon
  GI50: 35.1 µM
  TGI: > 100 µM
MDA-MB-435
  GI50: 26.2 µM
  TGI: 91.7 µM
SR leukemia
  GI50: > 100 µM
  TGI: > 100 µM
SF-268 CNS
  GI50: 19.7 µM
  TGI: 37.2 µM
SK-OV-3 ovarian
  GI50: 25.9 µM
  TGI: > 100 µM

## COc1cc(Cl)cc(-c2nn(-c3cccc(NC(=O)c4cccc(C(F)(F)F)c4)c3)cc2-c2ccncc2)c1
OVCAR-4 ovarian
  GI50: > 100 µM
  TGI: > 100 µM
SNB-19 CNS
  GI50: > 100 µM
  TGI: > 100 µM
OVCAR-8 ovarian
  GI50: 6.88 µM
  TGI: > 100 µM
786-0 renal
  GI50: 16.7 µM
  TGI: > 100 µM
HL-60(TB) leukemia
  GI50: 45.9 µM
  TGI: > 100 µM
OVCAR-3 ovarian
  GI50: 7.69 µM
  TGI: > 100 µM
NCI-H23 lung
  GI50: 6.74 µM
  TGI: > 100 µM
NCI/ADR-RES ovarian
  GI50: 5.37 µM
  TGI: > 100 µM
NCI-H522 lung
  GI50: 1.99 µM
  TGI: > 100 µM
OVCAR-5 ovarian
  GI50: > 100 µM
  TGI: > 100 µM
A549 NSCLC
  GI50: 3.62 µM
  TGI: > 100 µM
T-47D breast
  GI50: 4.69 µM
  TGI: > 100 µM
SF-539 CNS
  GI50: > 100 µM
  TGI: > 100 µM
HOP-62 NSCLC
  GI50: > 100 µM
  TGI: > 100 µM
MDA-MB-231 breast
  GI50: 1.38 µM
  TGI: 9.97 µM
UACC-257 melanoma
  GI50: > 100 µM
  TGI: > 100 µM
HCT-15 colon
  GI50: 3.35 µM
  TGI: > 100 µM
PC-3 prostate
  GI50: 2.71 µM
  TGI: > 100 µM
CCRF-CEM leukemia
  GI50: 4.38 µM
  TGI: > 100 µM
BT-549 breast
  GI50: > 100 µM
  TGI: > 100 µM
SK-MEL-5 melanoma
  GI50: 5.43 µM
  TGI: > 100 µM
K-562 leukemia
  GI50: 4.69 µM
  TGI: > 100 µM
M14 melanoma
  GI50: 6.09 µM
  TGI: > 100 µM
IGROV1 ovarian
  GI50: > 100 µM
  TGI: > 100 µM
LOX IMVI melanoma
  GI50: 15.7 µM
  TGI: > 100 µM
SW-620 colon
  GI50: > 100 µM
  TGI: > 100 µM
SN12C renal
  GI50: > 100 µM
  TGI: > 100 µM
NCI-H460 lung
  GI50: 5.17 µM
  TGI: > 100 µM
CAKI-1 renal
  GI50: 3.85 µM
  TGI: > 100 µM
HS 578T breast
  GI50: > 100 µM
  TGI: > 100 µM
NCI-H226 lung
  GI50: > 100 µM
  TGI: > 100 µM
MALME-3M melanoma
  GI50: > 100 µM
  TGI: > 100 µM
SF-295 CNS
  GI50: 3.91 µM
  TGI: > 100 µM
MOLT-4 leukemia
  GI50: 2.78 µM
  TGI: > 100 µM
RXF 393 renal
  GI50: 1.87 µM
  TGI: > 100 µM
KM12 colon
  GI50: 4.53 µM
  TGI: > 100 µM
UO-31 renal
  GI50: 2.71 µM
  TGI: > 100 µM
SNB-75 CNS
  GI50: 6.62 µM
  TGI: > 100 µM
RPMI-8226 leukemia
  GI50: 3.13 µM
  TGI: > 100 µM
MCF7 breast
  GI50: 4.17 µM
  TGI: > 100 µM
SK-MEL-2 melanoma
  GI50: 6.78 µM
  TGI: > 100 µM
ACHN renal
  GI50: 7.21 µM
  TGI: > 100 µM
DU-145 prostate
  GI50: > 100 µM
  TGI: > 100 µM
UACC-62 melanoma
  GI50: 8.04 µM
  TGI: > 100 µM
HCT-116 colon
  GI50: 3.17 µM
  TGI: > 100 µM
HT29 colon
  GI50: 3.37 µM
  TGI: > 100 µM
U251 CNS
  GI50: 5.56 µM
  TGI: > 100 µM
SK-MEL-28 melanoma
  GI50: > 100 µM
  TGI: > 100 µM
HCC-2998 colon
  GI50: 6.66 µM
  TGI: > 100 µM
COLO 205 colon
  GI50: 33.7 µM
  TGI: > 100 µM
MDA-MB-435
  GI50: > 100 µM
  TGI: > 100 µM
SR leukemia
  GI50: 2.48 µM
  TGI: > 100 µM
SF-268 CNS
  GI50: > 100 µM
  TGI: > 100 µM
SK-OV-3 ovarian
  GI50: > 100 µM
  TGI: > 100 µM
